For one assay, the target named is T1, ACK1 (Homo sapiens, UniProt Q07912).
T1 construct: purchased Reaction Biology
T1 sequence (Q07912 whole entry): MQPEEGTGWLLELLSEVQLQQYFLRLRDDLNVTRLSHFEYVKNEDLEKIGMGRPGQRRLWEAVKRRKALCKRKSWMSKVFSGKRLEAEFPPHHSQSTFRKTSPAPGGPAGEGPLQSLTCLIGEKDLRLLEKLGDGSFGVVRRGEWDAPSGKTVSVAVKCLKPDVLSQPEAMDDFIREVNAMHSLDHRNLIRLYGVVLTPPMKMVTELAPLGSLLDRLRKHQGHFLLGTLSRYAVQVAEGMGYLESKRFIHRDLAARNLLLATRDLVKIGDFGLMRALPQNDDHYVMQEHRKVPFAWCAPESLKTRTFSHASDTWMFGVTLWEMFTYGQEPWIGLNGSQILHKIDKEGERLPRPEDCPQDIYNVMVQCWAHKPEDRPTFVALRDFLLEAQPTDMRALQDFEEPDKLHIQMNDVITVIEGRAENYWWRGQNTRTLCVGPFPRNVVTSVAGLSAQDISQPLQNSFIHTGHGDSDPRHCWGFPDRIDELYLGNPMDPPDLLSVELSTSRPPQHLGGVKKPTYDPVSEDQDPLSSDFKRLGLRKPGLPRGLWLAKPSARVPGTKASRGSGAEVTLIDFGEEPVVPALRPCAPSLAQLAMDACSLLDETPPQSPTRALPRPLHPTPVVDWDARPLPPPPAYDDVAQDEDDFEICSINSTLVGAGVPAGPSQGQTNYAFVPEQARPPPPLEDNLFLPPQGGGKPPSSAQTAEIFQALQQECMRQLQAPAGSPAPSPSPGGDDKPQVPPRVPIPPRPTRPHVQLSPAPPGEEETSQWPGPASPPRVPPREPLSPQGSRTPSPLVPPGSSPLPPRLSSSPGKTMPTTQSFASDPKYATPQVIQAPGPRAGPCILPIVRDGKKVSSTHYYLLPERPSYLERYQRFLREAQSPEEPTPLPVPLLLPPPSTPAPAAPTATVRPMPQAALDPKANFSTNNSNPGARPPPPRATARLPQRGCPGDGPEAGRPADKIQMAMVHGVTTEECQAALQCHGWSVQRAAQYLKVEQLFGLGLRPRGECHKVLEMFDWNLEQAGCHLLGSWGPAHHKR
The assay can be described thus: ACK1 ELISA % inhibition at 100 nM. The assay is classed as biochemical.
Regarding `COc1cc(N2CCN(C)CC2)ccc1Nc1ncc(Cl)c(N(CCc2ccccc2)CC2CCCO2)n1` (stereo not shown) [5-chloro-N^2-(2-methoxy-4-(4-methylpiperazin-1-yl)phenyl)-N^4-phenethyl-N^4-((tetrahydrofuran-2-yl)methyl)pyrimidine-2,4-diamine], the inhibition (in general, the change of the read-out against control, counted positive when it falls) at 0.1 µM amounted to 38.5%.
Still for that read-out and setting: to `COc1cc(N2CCN(C)CC2)ccc1Nc1ncc(Cl)c(N[C@H](C)c2ccc(Cl)cc2)n1` [(R)-5-chloro-N^4-(1-(4-chlorophenyl)ethyl)-N^2-(2-methoxy-4-(4-methylpiperazin-1-yl)phenyl)pyrimidine-2,4-diamine] belongs 50.2%; to `CN1CCN(c2ccc(Nc3ncc(Cl)c(N(CCc4ccccc4)CC4CCCO4)n3)cc2)CC1` (stereo not shown) [5-chloro-N^2-(4-(4-methylpiperazin-1-yl)phenyl)-N^4-phenethyl-N^4-((tetrahydrofuran-2-yl)methyl)pyrimidine-2,4-diamine], 32%.

In a further assay the target is T1, ACK1. The assay can be described thus: Reaction Biology 33P Hotspot assay. The assay is classed as biochemical.
With `Cn1cc(Nc2ncc(Cl)c(NCC3CCOCC3)n2)cn1` [5-chloro-N^2-(1-methyl-1H-pyrazol-4-yl)-N^4-((tetrahydro-2H-pyran-4-yl)methyl)pyrimidine-2,4-diamine], the IC50 – broadly, the point on the concentration scale where inhibition reaches its midpoint – was determined as 84 nM.
For the molecule `Clc1cnc(Nc2ccc(OCC3CCOCC3)cc2)nc1NC[C@H]1CCCO1` [(R)-5-chloro-N^2-(4-((tetrahydro-2H-pyran-4-yl)methoxy)phenyl)-N^4-((tetrahydrofuran-2-yl)methyl)pyrimidine-2,4-diamine], half-maximal inhibition (IC50) was put at 69 nM.
Still for that read-out and setting: to `CC(C)Oc1cc(Nc2ncc(Cl)c(NCC3CCOCC3)n2)ccc1-c1cnn(C)c1` [5-chloro-N^2-(3-isopropoxy-4-(1-methyl-1H-pyrazol-4-yl)phenyl)-N^4-((tetrahydro-2H-pyran-4-yl)methyl)pyrimidine-2,4-diamine] belongs 23.6 nM; to `COc1cc(Nc2ncc(Cl)c(NCC3CCOCC3)n2)ccc1-c1cnn(C)c1` [5-chloro-N^2-(3-methoxy-4-(1-methyl-1H-pyrazol-4-yl)phenyl)-N^4-((tetrahydro-2H-pyran-4-yl)methyl)pyrimidine-2,4-diamine], 27.6 nM; to `Cc1cnc(Nc2cc(F)c(C3CCN(C)CC3)c(F)c2)nc1Nc1ccc(Cl)c(OCC(C)C)c1` [N^4-(4-chloro-3-isobutoxyphenyl)-N^2-(3,5-difluoro-4-(1-methylpiperidin-4-yl)phenyl)-5-methylpyrimidine-2,4-diamine], 181 nM.
Still for that read-out and setting: to `COc1cc(-n2cccn2)ccc1Nc1ncc(Cl)c(NC[C@H]2CCCO2)n1` [(R)-5-chloro-N^2-(2-methoxy-4-(1H-pyrazol-1-yl)phenyl)-N^4-((tetrahydrofuran-2-yl)methyl)pyrimidine-2,4-diamine] belongs 64.6 nM.
On the same count and under the same terms, to `CN1CCN(Cc2ccc(Nc3ncc(Cl)c(NCC4CCOCC4)n3)cc2)CC1` [5-chloro-N^2-(4-((4-methylpiperazin-1-yl)methyl)phenyl)-N^4-((tetrahydro-2H-pyran-4-yl)methyl)pyrimidine-2,4-diamine] belongs 69.1 nM.
Consider `CC[C@@H](Nc1nc(Nc2ccc(C3CCN(C)CC3)c(OC(C)C)c2)ncc1Cl)C1CCOCC1` [(R)-5-chloro-N^2-(3-isopropoxy-4-(1-methylpiperidin-4-yl)phenyl)-N^4-(1-(tetrahydro-2H-pyran-4-yl)propyl)pyrimidine-2,4-diamine], for which the IC50 was 352 nM.
With `COc1cc(Nc2ncc(Cl)c(NC[C@H]3CCCO3)n2)ccc1-c1cnn(C)c1` [(R)-5-chloro-N^2-(3-methoxy-4-(1-methyl-1H-pyrazol-4-yl)phenyl)-N^4-((tetrahydrofuran-2-yl)methyl)pyrimidine-2,4-diamine], half-maximal inhibition (IC50) required 40.4 nM.
Turning to `CC(C)Oc1cc(Nc2ncc(Cl)c(N[C@H](C)C3CCOCC3)n2)ccc1N1CCN(C)CC1` [(R)-5-chloro-N^2-(3-isopropoxy-4-(4-methylpiperazin-1-yl)phenyl)-N^4-(1-(tetrahydro-2H-pyran-4-yl)ethyl)pyrimidine-2,4-diamine], it took 37 nM to reach half-maximal inhibition (IC50).
`CN1CCC(n2cc(Nc3ncc(Cl)c(NCC4CCOCC4)n3)cn2)CC1` [5-chloro-N^2-(1-(1-methylpiperidin-4-yl)-1H-pyrazol-4-yl)-N^4-((tetrahydro-2H-pyran-4-yl)methyl)pyrimidine-2,4-diamine] came in with an IC50 of 138 nM.
On to `CC(C)Oc1cc(Nc2ncc(Cl)c(N[C@H](C)C3CCOCC3)n2)ccc1C1CCN(C)CC1` [(R)-5-chloro-N^2-(3-isopropoxy-4-(1-methylpiperidin-4-yl)phenyl)-N^4-(1-(tetrahydro-2H-pyran-4-yl)ethyl)pyrimidine-2,4-diamine], for which half-maximal inhibition (IC50) was put at 40.8 nM.
Regarding `COc1cc(N2CCN(C)CC2)ccc1Nc1ncc(C)c(NCC2CCOCC2)n1` [N^2-(2-methoxy-4-(4-methylpiperazin-1-yl)phenyl)-5-methyl-N^4-((tetrahydro-2H-pyran-4-yl)methyl)pyrimidine-2,4-diamine], the IC50 was 34.5 nM.
Same read-out and setting: with `COc1cc(-c2cnn(C)c2)ccc1Nc1ncc(Cl)c(NCC2CCOCC2)n1` [5-chloro-N^2-(2-methoxy-4-(1-methyl-1H-pyrazol-4-yl)phenyl)-N^4-((tetrahydro-2H-pyran-4-yl)methyl)pyrimidine-2,4-diamine] the figure was 38.1 nM; with `CN1CCN(c2ccc(Nc3ncc(Cl)c(NCC4CCOCC4)n3)c(O)c2)CC1` [2-((5-chloro-4-(((tetrahydro-2H-pyran-4-yl)methyl)amino)pyrimidin-2-yl)amino)-5-(4-methylpiperazin-1-yl)phenol], 55.3 nM.
Regarding `Clc1cnc(Nc2cnn(C3CCOCC3)c2)nc1NCC1CCOCC1` [5-chloro-N^2-(1-(tetrahydro-2H-pyran-4-yl)-1H-pyrazol-4-yl)-N^4-((tetrahydro-2H-pyran-4-yl)methyl)pyrimidine-2,4-diamine], the IC50 came to 90 nM.
On the same count and under the same terms, with `Cn1cc(-c2ccc(Nc3ncc(Cl)c(NC[C@H]4CCCO4)n3)cc2)cn1` [(R)-5-chloro-N^2-(4-(1-methyl-1H-pyrazol-4-yl)phenyl)-N^4-((tetrahydrofuran-2-yl)methyl)pyrimidine-2,4-diamine] the figure was 128 nM.
Molecule `Cn1cc(-c2ccc(Nc3ncc(Cl)c(NCC4CCOCC4)n3)cc2F)cn1` [5-chloro-N^2-(3-fluoro-4-(1-methyl-1H-pyrazol-4-yl)phenyl)-N^4-((tetrahydro-2H-pyran-4-yl)methyl)pyrimidine-2,4-diamine] registered a half-inhibitory concentration (IC50) of 31 nM.
As to `Clc1cnc(Nc2ccc(OCC3CCOCC3)cc2)nc1NCC1CCOCC1` [5-chloro-N^2-(4-((tetrahydro-2H-pyran-4-yl)methoxy)phenyl)-N^4-((tetrahydro-2H-pyran-4-yl)methyl)pyrimidine-2,4-diamine], half-maximal inhibition (IC50) was put at 46 nM.
On the same count and under the same terms, with `COc1cc(-n2cccn2)ccc1Nc1ncc(Cl)c(NCC2CCOCC2)n1` [5-chloro-N^2-(2-methoxy-4-(1H-pyrazol-1-yl)phenyl)-N^4-((tetrahydro-2H-pyran-4-yl)methyl)pyrimidine-2,4-diamine] the figure was 34.9 nM; with `CC(C)Oc1cc(-c2cnn(C)c2)ccc1Nc1ncc(Cl)c(NCC2CCOCC2)n1` [5-chloro-N^2-(2-isopropoxy-4-(1-methyl-1H-pyrazol-4-yl)phenyl)-N^4-((tetrahydro-2H-pyran-4-yl)methyl)pyrimidine-2,4-diamine], 232 nM.
Turning to `COc1cc(N2CCN(C)CC2)c(F)cc1Nc1ncc(C)c(NCC2CCOCC2)n1` [N^2-(5-fluoro-2-methoxy-4-(4-methylpiperazin-1-yl)phenyl)-5-methyl-N^4-((tetrahydro-2H-pyran-4-yl)methyl)pyrimidine-2,4-diamine], the IC50 stood at 14.7 nM.

For the origin of these results see patent US12637432B2, “Inhibitors of ACK1/TNK2 tyrosine kinase” (H. LEE MOFFITT CANCER CENTER AND RESEARCH INSTITUTE, INC., priority 2020, dated 2026).
